Reference: patent publication US20120165384A1, “INHIBITION OF HISTONE ACETYLTRANSFERASES BY CTK7A AND METHODS THEREOF” (JAWAHARLAL NEHRU CENTRE FOR ADVANCED SCIENTIFIC RESEARCH, priority 2009, published 2012)

Tests used:
CARM1 = target: T1, CARM1 (Homo sapiens, UniProt Q86X55); assay: Histone methyltransferase (HMTase) assay, CARM1; format: biochemical; conditions: even at 100 μM
T1 construct: Recombinant baculovirus expressing full-length FLAG-tagged CARM1,CBP and PCAF; FLAG; made in house; host or cells: baculovirus-infected Sf21 cells
T1 sequence (Q86X55 1-608): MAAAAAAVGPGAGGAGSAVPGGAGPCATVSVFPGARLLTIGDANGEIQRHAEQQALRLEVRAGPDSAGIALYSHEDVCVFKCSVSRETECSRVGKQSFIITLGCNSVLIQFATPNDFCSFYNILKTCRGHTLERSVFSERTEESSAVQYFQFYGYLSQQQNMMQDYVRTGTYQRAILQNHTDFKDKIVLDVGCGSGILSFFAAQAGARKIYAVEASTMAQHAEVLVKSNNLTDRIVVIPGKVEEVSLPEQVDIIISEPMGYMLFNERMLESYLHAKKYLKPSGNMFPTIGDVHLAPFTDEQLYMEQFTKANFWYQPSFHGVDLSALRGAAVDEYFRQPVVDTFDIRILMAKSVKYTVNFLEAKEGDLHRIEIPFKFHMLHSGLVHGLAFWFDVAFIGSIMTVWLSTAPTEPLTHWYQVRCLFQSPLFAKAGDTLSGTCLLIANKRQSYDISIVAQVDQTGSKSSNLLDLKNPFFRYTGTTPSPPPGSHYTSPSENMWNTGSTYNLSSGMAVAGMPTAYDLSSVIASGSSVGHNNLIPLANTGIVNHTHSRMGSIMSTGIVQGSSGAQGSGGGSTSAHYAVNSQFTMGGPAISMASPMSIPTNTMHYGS
Description: Recombinant baculovirus expressing full-length FLAG-tagged CARM1,CBP and PCAF were purified by immunoaffinity chromatography using M2-agarose beads followed by elution with FLAG peptide. Baculovirus-expressed full-length hexahistidine-tagged p300, and G9a were purified using Ni-NTA affinity chromatography as described previously^30.
The deacetylation assay was performed as per standard protocol^31. For SirT2 deacetylase assay, 50 ng of bacterially expressed, recombinant enzyme was added in the presence or absence of cofactor NAD^+. HMTase was performed as reported earlier^31.

full length p300 = target: T2, full length p300 (Homo sapiens, UniProt Q09472); assay: p300 autoacetylation assay in vitro (3H-acetyl CoA, fluorography/autoradiography); format: biochemical; conditions: in vitro, concentration dependent
T2 construct: hexahistidine; made in house; host or cells: baculovirus-infected Sf21 cells
Description: HAT gel fluorography/autoradiography assays were performed as previously reported^30. Kinetic analysis of p300 HAT inhibition was performed as reported earlier^31 in the presence of (0, 30 and 50 μM) CTK7A. The obtained values were plotted as a lineweaver burk plot using Graphpad Prism software. For p300 Autoacetylation assay, reactions of p300 full length (80 ng) were carried out in HAT assay buffer at 30° C. for 10 minutes with or without the protein (NPM1) followed by addition of 1 μl of 4.7 Ci/mmol [^3H] acetyl CoA (NEN-PerkinElmer) and were further incubated for another 10 min in a 30 μl reaction. GAPDH was used as positive control. The radio-labeled acetylated p300 were processed by fluorography followed by autoradiography.

p300 = p300 (Homo sapiens, UniProt Q09472); assay: p300 autoacetylation enhanced by cocktail of HDAC inhibitors (immunoprecipitation); format: cell-based
Description: Whole cell extract were prepared using RIPA buffer as mentioned above. The pre-blocked protein-G sepharose-bound antibody (4 μg) was incubated with 500 μg whole cell lysate overnight at 4° C. After extensive washes, bead-bound protein were analysed by western blotting with indicated antibodies. For HDAC inhibitors treatment, 5 mM sodium butyrate, 5 mM nicotiamide and 100 ng ml^−1 TSA were added 10 h before cells were harvest^36.

KB cells = assay: FACS cell cycle analysis; format: cell-based; conditions: 24 h, concentration dependent
Description: KB cells were grown in the presence or absence of CTK7A for 24 h with the indicated concentration. Cells were grown in presence of CTK7A for 2 h in absence of serum followed by addition of 10% Serum. Briefly cells were harvested by mild trypsinization (0.25%) followed by centrifugation at 2000 rpm for 10 minutes at 4° C. Cells were washed with cold PBS by centrifugation at 2000 rpm for 10 minutes at 4° C. Cells were fixed in cold 70% Ethanol which was added drop wise along with mild vortexing.
Samples were left for 12 hrs, after which Ethanol was removed followed by two washes in cold PBS. RNase (100 μg/ml) treatment was subsequently given at 37° C./30 minutes to ensure only DNA staining. 50 μg/ml Propidium Iodide was added for staining. Cells were sorted and analyzed by flow cytometry for the cell cycle distribution using inbuilt software of BD FACScalibur instrument. Analysis was done in FL2 channel.

[1] = test system: cyclin E and cyclin D1 expression in KB cells; assay: Cyclin expression in KB cells; format: cell-based
Description: KB cells were maintained in Dullbecco's modified Eagle medium (DMEM) with 10% fetal bovine serum (FBS) at 37° C. with a 5% CO2 atmosphere in a humidified incubator. For IFNγ and GSNO treatment, KB cells were incubated in the presence of IFNγ 10 ng ml^−1 for an additional 16 h and 24 h respectively. Immunofluorescent staining of cells for confocal microscopy was carried out as described previously^30. CTK7A treatment was done for 24 h followed by acid extraction of histone and immunoblotting as per standard protocol^31. For whole cell extract preparation RIPA buffer (Tris-HCl 50 mM, pH 7.4 NP-40 1%, Na-deoxycholate 0.25%, NaCl 150 mM, EDTA 1 mM, Phenylmethylsulfonyl fluoride (PMSF), 1 mM Na3VO4, 1 mM NaF and protease inhibitor cocktail) was used.

T2 sequence (Q09472 whole entry, species assumed): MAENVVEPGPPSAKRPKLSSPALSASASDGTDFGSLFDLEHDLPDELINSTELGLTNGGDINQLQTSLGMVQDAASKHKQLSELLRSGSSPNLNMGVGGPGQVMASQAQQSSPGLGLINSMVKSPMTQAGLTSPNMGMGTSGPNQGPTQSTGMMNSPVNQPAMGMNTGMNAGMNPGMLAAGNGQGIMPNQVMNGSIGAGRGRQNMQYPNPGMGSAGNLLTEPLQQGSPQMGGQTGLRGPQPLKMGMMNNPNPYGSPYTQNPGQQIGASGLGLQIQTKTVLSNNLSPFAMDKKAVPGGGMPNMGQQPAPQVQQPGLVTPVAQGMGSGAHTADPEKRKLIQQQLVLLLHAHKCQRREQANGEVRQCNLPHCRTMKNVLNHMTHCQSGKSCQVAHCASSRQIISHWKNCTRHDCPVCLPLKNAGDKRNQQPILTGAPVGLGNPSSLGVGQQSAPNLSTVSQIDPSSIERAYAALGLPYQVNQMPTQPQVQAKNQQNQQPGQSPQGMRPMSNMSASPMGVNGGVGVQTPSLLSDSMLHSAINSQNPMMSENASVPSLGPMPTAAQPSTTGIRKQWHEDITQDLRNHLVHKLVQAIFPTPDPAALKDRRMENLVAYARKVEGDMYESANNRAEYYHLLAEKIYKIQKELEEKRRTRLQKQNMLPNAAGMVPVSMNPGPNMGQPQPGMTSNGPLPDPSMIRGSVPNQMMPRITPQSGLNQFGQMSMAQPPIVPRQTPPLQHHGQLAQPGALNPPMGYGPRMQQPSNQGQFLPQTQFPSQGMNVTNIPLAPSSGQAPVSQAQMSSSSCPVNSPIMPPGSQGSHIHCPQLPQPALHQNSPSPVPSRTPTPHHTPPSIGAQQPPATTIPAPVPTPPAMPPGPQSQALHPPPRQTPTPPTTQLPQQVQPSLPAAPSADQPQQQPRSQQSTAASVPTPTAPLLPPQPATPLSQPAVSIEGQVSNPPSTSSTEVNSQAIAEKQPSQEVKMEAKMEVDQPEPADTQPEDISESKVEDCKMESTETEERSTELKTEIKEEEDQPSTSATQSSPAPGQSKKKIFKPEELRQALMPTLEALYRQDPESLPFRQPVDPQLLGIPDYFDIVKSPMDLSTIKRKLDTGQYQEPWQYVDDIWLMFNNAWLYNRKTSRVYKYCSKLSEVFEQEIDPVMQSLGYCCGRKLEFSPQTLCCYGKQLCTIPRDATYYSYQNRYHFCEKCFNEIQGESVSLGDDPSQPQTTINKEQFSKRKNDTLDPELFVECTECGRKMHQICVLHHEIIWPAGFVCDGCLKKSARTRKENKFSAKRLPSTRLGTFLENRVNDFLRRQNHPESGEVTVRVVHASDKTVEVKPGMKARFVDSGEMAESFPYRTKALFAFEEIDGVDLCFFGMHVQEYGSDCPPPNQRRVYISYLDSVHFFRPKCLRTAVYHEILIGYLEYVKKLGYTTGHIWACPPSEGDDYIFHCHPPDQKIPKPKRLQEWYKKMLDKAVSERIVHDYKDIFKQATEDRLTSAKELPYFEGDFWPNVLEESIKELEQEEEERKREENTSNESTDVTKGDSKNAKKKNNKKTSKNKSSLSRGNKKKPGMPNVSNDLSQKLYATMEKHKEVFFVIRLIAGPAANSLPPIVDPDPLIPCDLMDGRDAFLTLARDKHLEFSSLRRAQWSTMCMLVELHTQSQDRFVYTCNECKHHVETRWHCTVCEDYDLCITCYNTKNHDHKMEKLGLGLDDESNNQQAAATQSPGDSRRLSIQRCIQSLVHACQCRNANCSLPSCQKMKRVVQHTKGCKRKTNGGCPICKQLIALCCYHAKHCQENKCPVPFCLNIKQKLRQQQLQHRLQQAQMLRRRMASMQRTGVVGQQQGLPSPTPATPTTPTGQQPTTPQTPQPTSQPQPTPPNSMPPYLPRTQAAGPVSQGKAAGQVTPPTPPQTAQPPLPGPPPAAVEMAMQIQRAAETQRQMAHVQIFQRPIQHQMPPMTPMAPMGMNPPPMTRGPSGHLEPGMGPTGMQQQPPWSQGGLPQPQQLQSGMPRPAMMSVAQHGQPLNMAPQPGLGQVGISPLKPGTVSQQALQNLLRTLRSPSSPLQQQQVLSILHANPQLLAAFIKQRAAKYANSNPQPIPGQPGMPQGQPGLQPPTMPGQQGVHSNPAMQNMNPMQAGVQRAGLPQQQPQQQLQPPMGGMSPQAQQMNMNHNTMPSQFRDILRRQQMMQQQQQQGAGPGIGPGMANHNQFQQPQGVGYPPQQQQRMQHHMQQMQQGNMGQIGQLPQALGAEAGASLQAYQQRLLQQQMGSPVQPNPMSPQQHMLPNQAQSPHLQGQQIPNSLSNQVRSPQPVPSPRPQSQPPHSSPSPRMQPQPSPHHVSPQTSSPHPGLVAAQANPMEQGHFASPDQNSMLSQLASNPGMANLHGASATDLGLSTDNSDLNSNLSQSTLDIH
Chain of p300 (Q09472 whole entry, species assumed): as above

Question: Which “effect on CARM1 activity” value (CARM1) does the source give for `COc1cc([O-])cc(C=CC2=NN(c3ccc(C(=O)[O-])cc3)C(C=Cc3cc([O-])cc(OC)c3)C2)c1.[Na+].[Na+].[Na+]` (stereo not drawn) [CTK7A, Sodium 4-(3,5-bis(3-methoxy-5-oxidostyryl)-4,5dihydro-1H-pyrazole-1-yl)benzoate] here?
Answer: unaffected

Question: What about the “inhibition of p300 autoacetylation” value (full length p300) of the same compound?
Answer: inhibit

Question: What about the “inhibition of enhanced autoacetylation of p300” value (p300) of the same compound?
Answer: inhibit

Question: And the “percentage of polyploid cells (>4N)” value (KB cells)?
Answer: dramatic increase

Question: And the “cyclin D1 expression” value [1]?
Answer: affected marginally

Question: What about the “cyclin E expression” value ([1]; dose dependent) of the same compound?
Answer: down regulated
